target: Gag-Pol polyprotein (Human immunodeficiency virus type 1 group M subtype B (isolate HXB2), UniProt P04585); test: concentration-response of HIV-1 RNase H blockers – biochemical, probe assessment, dose response (AID 652); details: pH 8; 23 °C

Compound | IC50
O=C(NC(=O)c1ccc(Cl)cc1)Nc1cc(N2CCCCC2)ncn1 [4-chloranyl-N-[(6-piperidin-1-ylpyrimidin-4-yl)carbamoyl]benzamide] | 8.45 µM
CCOC(=O)c1sc(NC(=O)CSc2nnc(Cc3ccccc3)o2)c(C#N)c1C [4-cyano-3-methyl-5-[[1-oxo-2-[[5-(phenylmethyl)-1,3,4-oxadiazol-2-yl]thio]ethyl]amino]-2-thiophenecarboxylic acid ethyl ester] | 0.094 µM
CCOc1ccc(S(=O)(=O)Nc2cc(Sc3nnc[nH]3)c3oc(=O)sc3c2)cc1 [4-ethoxy-N-[2-oxo-7-(1H-1,2,4-triazol-5-ylsulfanyl)-1,3-benzoxathiol-5-yl]benzenesulfonamide] | 2.53 µM
COc1ccccc1CNC(=O)c1cc2c(=O)n(C)c3ccccc3c2n1C [4-keto-1,5-dimethyl-N-o-anisyl-pyrrolo[3,2-c]quinoline-2-carboxamide] | 24.7 µM
COC(=O)c1ccc2c(c1)N(Cc1nc(-c3cccc(C)c3)oc1C)C(=O)C1CCCN21 (stereo unspecified) [4-keto-5-[[5-methyl-2-(m-tolyl)oxazol-4-yl]methyl]-1,2,3,3a-tetrahydropyrrolo[1,2-a]quinoxaline-7-carboxylic acid methyl ester] | 5.97 µM
COc1ccc(S(=O)(=O)Nc2ccc(O)c3ccccc23)cc1 [4-methoxy-N-(4-oxidanylnaphthalen-1-yl)benzenesulfonamide] | 4.07 µM
Cc1sc2nc(C(C)Nc3ccccc3N3CCOCC3)[nH]c(=O)c2c1C (stereo unspecified) [5,6-dimethyl-2-[1-[2-(4-morpholinyl)anilino]ethyl]-3H-thieno[2,3-d]pyrimidin-4-one] | 14.4 µM
Cc1cccc(Nc2nnc(S)s2)c1C [5-(2,3-dimethylanilino)-3H-1,3,4-thiadiazole-2-thione] | 3.59 µM
N#Cc1c(NC(=O)c2ccc(Cn3cc(Br)cn3)o2)sc2c1CCCCCC2 [5-[(4-bromanylpyrazol-1-yl)methyl]-N-(3-cyano-4,5,6,7,8,9-hexahydrocycloocta[b]thiophen-2-yl)furan-2-carboxamide] | 1.38 µM
Nc1nnc(CSCc2ccc(F)cc2)s1 [5-[(4-fluorophenyl)methylsulfanylmethyl]-1,3,4-thiadiazol-2-amine] | > 50 µM
COC(=O)c1ccc2c(c1)N(Cc1nc(-c3ccc(Cl)cc3)oc1C)C(=O)C1CCCN21 (stereo unspecified) [5-[[2-(4-chlorophenyl)-5-methyl-4-oxazolyl]methyl]-4-oxo-1,2,3,3a-tetrahydropyrrolo[1,2-a]quinoxaline-7-carboxylic acid methyl ester] | 2.86 µM
CCOC(=O)c1c(N)sn(-c2ccccc2C)c1=S [5-amino-2-(2-methylphenyl)-3-sulfanylidene-4-isothiazolecarboxylic acid ethyl ester] | 2.28 µM
Cc1ccc(NC(=O)Cn2nnc(C(=O)Nc3ccc(C)c(C)c3)c2N)cc1 [5-amino-N-(3,4-dimethylphenyl)-1-[2-(4-methylanilino)-2-oxoethyl]-4-triazolecarboxamide] | 16.4 µM
c1ccc2c(c1)OCC(c1nnc3sc(-c4ccc5c(c4)OCO5)nn13)O2 (stereo unspecified) [6-(1,3-benzodioxol-5-yl)-3-(2,3-dihydro-1,4-benzodioxin-3-yl)-[1,2,4]triazolo[3,4-b][1,3,4]thiadiazole] | 1.46 µM
Fc1ccc(-c2nnc3sc(-c4ccc5c(c4)OCO5)nn23)cc1 [6-(1,3-benzodioxol-5-yl)-3-(4-fluorophenyl)-[1,2,4]triazolo[3,4-b][1,3,4]thiadiazole] | 3.92 µM
Clc1ccccc1-c1nn2c(-c3ccncc3)nnc2s1 [6-(2-chlorophenyl)-3-(4-pyridinyl)[1,2,4]triazolo[3,4-b][1,3,4]thiadiazole] | 2.7 µM
CCn1cc(C(=O)NCc2ccco2)c(=O)c2cc(S(=O)(=O)N3CCc4ccccc4C3)ccc21 [6-(3,4-dihydro-1H-isoquinolin-2-ylsulfonyl)-1-ethyl-N-(2-furanylmethyl)-4-oxo-3-quinolinecarboxamide] | 9.32 µM
COc1cc(-c2nnc3sc(-c4cccnc4)nn23)cc(OC)c1OC [6-(3-pyridinyl)-3-(3,4,5-trimethoxyphenyl)-[1,2,4]triazolo[3,4-b][1,3,4]thiadiazole] | > 50 µM
COc1cc(-c2nnc3sc(Cc4ccc(Cl)cc4)nn23)cc(OC)c1OC [6-(4-chlorobenzyl)-3-(3,4,5-trimethoxyphenyl)-[1,2,4]triazolo[3,4-b][1,3,4]thiadiazole] | 1.08 µM
c1c2c(cc3sc(N4CCOCC4)nc13)OCO2 [6-(4-morpholinyl)-[1,3]dioxolo[4,5-f][1,3]benzothiazole] | 3.59 µM
c1ccc(N2CCN(c3nc4cc5c(cc4s3)OCO5)CC2)cc1 [6-(4-phenyl-1-piperazinyl)-[1,3]dioxolo[4,5-f][1,3]benzothiazole] | 3.21 µM
Cc1ccccc1NC(=O)c1c(O)n2c3c(cccc3c1=O)CC2 [6-Hydroxy-4-oxo-1,2-dihydro-4H-pyrrolo[3,2,1-ij]quinoline-5-carboxylic acid o-tolylamide] | 21.7 µM
O=C(NCCc1ccccc1)c1c(O)n2c3c(cccc3c1=O)CC2 [6-Hydroxy-4-oxo-1,2-dihydro-4H-pyrrolo[3,2,1-ij]quinoline-5-carboxylic acid phenethyl-amide] | 9.94 µM

Compound | IC50
Cc1oc(-c2ccc(Cl)cc2)cc1-c1nn2c(-c3ccoc3C)nnc2s1 [6-[5-(4-chlorophenyl)-2-methyl-3-furanyl]-3-(2-methyl-3-furanyl)-[1,2,4]triazolo[3,4-b][1,3,4]thiadiazole] | 1.18 µM
Fc1ccc(-c2ccc(-c3nn4c(-c5ccco5)nnc4s3)o2)cc1 [6-[5-(4-fluorophenyl)-2-furanyl]-3-(2-furanyl)-[1,2,4]triazolo[3,4-b][1,3,4]thiadiazole] | 8.95 µM
Cc1ccc(-c2cc(C(=O)NC3=NCCS3)c3cc(Br)ccc3n2)o1 [6-bromanyl-N-(4,5-dihydro-1,3-thiazol-2-yl)-2-(5-methylfuran-2-yl)quinoline-4-carboxamide] | 0.175 µM
COc1ccc(N2CCN(Cc3cc(=O)oc4cc(C)c(Cl)c(C)c34)CC2)cc1 [6-chloranyl-4-[[4-(4-methoxyphenyl)piperazin-1-yl]methyl]-5,7-dimethyl-chromen-2-one] | 3.86 µM
O=c1cc(CN2CCN(c3ccccc3)CC2)c2cc(O)c(-c3ccccc3)cc2o1 [6-hydroxy-7-phenyl-4-[(4-phenyl-1-piperazinyl)methyl]-1-benzopyran-2-one] | 5.01 µM
CC(C)(C)C1=Nn2c(nnc2-c2ccccn2)SC1 [6-tert-butyl-3-(2-pyridinyl)-7H-[1,2,4]triazolo[3,4-b][1,3,4]thiadiazine] | 7.22 µM
CC1(C)Cc2[nH]c(=S)c(C#N)cc2CO1 [7,7-dimethyl-2-sulfanylidene-5,8-dihydro-1H-pyrano[4,3-b]pyridine-3-carbonitrile] | 4.03 µM
O=C1CC(c2ccco2)Cc2nc(Nc3nc(-c4ccccc4)c4ccccc4n3)ncc21 (stereo unspecified) [7-(2-furanyl)-2-[(4-phenyl-2-quinazolinyl)amino]-7,8-dihydro-6H-quinazolin-5-one] | 13.7 µM
CCN1CCN(c2nc(C)nc3c2sc(=S)n3C)CC1 [7-(4-ethyl-1-piperazinyl)-3,5-dimethyl-2-thiazolo[4,5-d]pyrimidinethione] | 2.94 µM
Cc1ccc(-c2cc(C(F)F)n3ncc(C(=O)NCc4ccco4)c3n2)cc1 [7-(difluoromethyl)-N-(2-furanylmethyl)-5-(4-methylphenyl)-3-pyrazolo[1,5-a]pyrimidinecarboxamide] | 15.3 µM
COc1ccc(C2c3c(oc4ccc(Cl)cc4c3=O)C(=O)N2Cc2ccco2)cc1OC (stereo unspecified) [7-chloranyl-1-(3,4-dimethoxyphenyl)-2-(furan-2-ylmethyl)-1H-chromeno[2,3-c]pyrrole-3,9-dione] | 13.5 µM
CCOc1cc(C2c3c(oc4cc(C)c(Cl)cc4c3=O)C(=O)N2Cc2ccco2)ccc1O (stereo unspecified) [7-chloranyl-1-(3-ethoxy-4-oxidanyl-phenyl)-2-(furan-2-ylmethyl)-6-methyl-1H-chromeno[2,3-c]pyrrole-3,9-dione] | 6.99 µM
O=C(NCc1ccco1)c1cc2cc3ccc(Cl)cc3nc2o1 [7-chloranyl-N-(furan-2-ylmethyl)furo[2,3-b]quinoline-2-carboxamide] | 19.2 µM
C=CCSc1nc2c(c(=O)[nH]c(=O)n2C)n1CC [7-ethyl-3-methyl-8-prop-2-enylsulfanylpurine-2,6-dione] | 3.75 µM
COc1ccc(Br)cc1C1CC(=O)N2CN(C)CSC2=C1C#N (stereo unspecified) [8-(5-bromanyl-2-methoxy-phenyl)-3-methyl-6-oxidanylidene-2,4,7,8-tetrahydropyrido[2,1-b][1,3,5]thiadiazine-9-carbonitrile] | 7.18 µM
COc1ccccc1/N=c1\oc2c(OC)cccc2cc1C(=O)NCc1ccco1 [8-Methoxy-2-[(Z)-2-methoxy-phenylimino]-2H-chromene-3-carboxylic acid (furan-2-ylmethyl)-amide] | 3.13 µM
O=c1ccc2cc3c([nH]c4ccc(Br)cc43)oc-2c1O [9-bromo-4-hydroxy-6H-[1]benzopyrano[2,3-b]indol-3-one] | 1.49 µM
O=C(c1ccccc1F)N1CCN(S(=O)(=O)c2ccc(S(=O)(=O)N3CCCCC3)cc2)CC1 [(2-Fluoro-phenyl)-{4-[4-(piperidine-1-sulfonyl)-benzenesulfonyl]-piperazin-1-yl}-methanone] | 44 µM
OCCN1CCN(C(=S)c2ccc(Cl)c(Cl)c2)CC1 [(3,4-dichlorophenyl)-[4-(2-hydroxyethyl)-1-piperazinyl]methanethione] | 3.2 µM
CN1CCN(C(=O)c2sc(=S)n(-c3ccccc3)c2N)CC1 [(4-amino-3-phenyl-2-sulfanylidene-1,3-thiazol-5-yl)-(4-methylpiperazin-1-yl)methanone] | 2.29 µM
Nc1c(C(=O)N2CCOCC2)sc(=S)n1-c1ccccc1 [(4-amino-3-phenyl-2-sulfanylidene-1,3-thiazol-5-yl)-morpholin-4-ylmethanone] | 4.97 µM
Nc1c(C(=O)N2CCCCC2)sc(=S)n1-c1ccccc1 [(4-amino-3-phenyl-2-sulfanylidene-1,3-thiazol-5-yl)-piperidin-1-ylmethanone] | 1.85 µM
COc1ccccc1-c1nnc2n1N=C(c1ccc(O)c(O)c1)CS2 [(4E)-4-[3-(2-methoxyphenyl)-5H-[1,2,4]triazolo[3,4-b][1,3,4]thiadiazin-6-ylidene]-2-oxidanyl-cyclohexa-2,5-dien-1-one] | 1 µM

Source: BindingDB's records for doi:10.7270/Q2H70D5W (University of Pittsburgh, 2007)
